This is an account of results in US8658661B2, “Oxadiazole inhibitors of leukotriene production” (Boehringer Ingelheim International GmbH, priority 2010, dated 2014).

Each structure is given as a SMILES string.

The test system of assay [1] is biomarkers for myocardial infarction risk. The conditions noted are these: clinical trial; cited from earlier work.
Assay [2] concerns the target T1, recombinant human FLAP protein (Homo sapiens, UniProt P20292).
T1 construct: made in house; host or cells: Sf9 insect cells (100,000×g membrane pellet used)
T1 sequence (P20292 1-161): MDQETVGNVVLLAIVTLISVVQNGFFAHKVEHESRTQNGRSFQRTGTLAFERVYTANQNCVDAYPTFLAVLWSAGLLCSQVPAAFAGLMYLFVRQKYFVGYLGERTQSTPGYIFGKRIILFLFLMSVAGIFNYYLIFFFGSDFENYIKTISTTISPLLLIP
Description: FLAP binding assay (SPA, displacement of [125I]L-691,831). The settings on record: membranes of sf9 cells expressing recombinant human FLAP; [125I]L-691,831 probe; read-out: FLAP binding IC50. In short, it runs like this:
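Membranes from sf9 cells expressing human FLAP in pH 7.5 Tris buffer (MgCl2, EDTA, PMSF). Non-specific binding defined with 10 μM cold L-691,831.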
For orientation: Loss of bound radioactivity is the signal in a displacement assay; it reports binding, not function.

Assay [3] deals with synthesis of LTB4 in human whole blood. Put plainly: Human whole blood assay (inhibition of LTB4 synthesis, calcimycin stimulated). The format is cell-based. The settings on record: heparinized human whole blood, calcimycin 20 μM, plasma LTB4. In short, it runs like this: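 Heparinized human whole blood preincubated with compound 15 min at 37 °C, then stimulated with calcimycin (20 μM final) for 30 min at 37 °C. Plasma LTB4 measured after low-speed centrifugation by antibody-based homogeneous time-resolved fluorescence.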

Assay [4] has as its system human glomerulonephritis. The conditions noted are these: clinical trial; cited from earlier work.
Assay [5] concerns apoE/LDL-R double knockout mice. The settings on record: oral dosing, high-fat diet from 2 months of age to 6 months; cited from earlier work.
In assay [6] the test system is ApoE−/−xCD4dnTβRII mice. The settings on record: via infusion, treated for four weeks; cited from earlier work.

In the case of `O=C(O)[C@@H](c1ccc(OCc2ccc3ccccc3n2)cc1)C1CCCC1` [DG-031], in assay [1], the “effect on biomarkers for myocardial infarction risk” value is given as “dose-dependent suppression of several biomarkers”.

Consider `CN(C)C(=O)Cn1cc(-c2nc([C@@](C)(c3ccc(-c4cnc5c(c4)CCN5)cc3)C3CC3)no2)cn1` [Example 284, 2-[4-(3-{(R)-1-Cyclopropyl-1-[4-(2,3-dihydro-1H-pyrrolo[2,3-b]pyridin-5-yl)-phenyl]-ethyl}-[1,2,4]oxadiazol-5-yl)-pyrazol-1-yl]-N,N-dimethyl-acetamide], for which the IC50 in assay [2] is 4.7 nM; in assay [3], 200 nM.

For `Cc1nc(N)cnc1-c1ccc([C@](C)(c2noc(-c3cnn(CC(=O)N(C)C)c3)n2)C2CC2)cc1` [Example 285, 2-[4-(3-{(R)-1-[4-(5-Amino-3-methyl-pyrazin-2-yl)-phenyl]-1-cyclopropyl-ethyl}-[1,2,4]oxadiazol-5-yl)-pyrazol-1-yl]-N,N-dimethyl-acetamide], the concentration for half-maximal inhibition (IC50) is 7 nM in assay [2] and 190 nM in assay [3].

For `COc1cncc(-c2ccc(C(C)(c3noc(-c4cnn(C)c4)n3)C3CC3)cc2)c1` (centres unmarked) [Example 286, 3-(4-{1-Cyclopropyl-1-[5-(1-methyl-1H-pyrazol-4-yl)-[1,2,4]oxadiazol-3-yl]-ethyl}-phenyl)-5-methoxy-pyridine], the results for the IC50 in assay [2] and in assay [3] were 16 nM and 2100 nM, respectively.

With `CC(c1ccc(-c2cnc(N)nc2)cc1)(c1noc(N2CCC[C@@H](O)C2)n1)C1CC1` (stereo partly drawn) [Example 287, (R)-1-(3-{1-[4-(2-Amino-pyrimidin-5-yl)-phenyl]-1-cyclopropyl-ethyl}-[1,2,4]oxadiazol-5-yl)-piperidin-3-ol], the IC50 in assay [2] is 7 nM; in assay [3], 150 nM.

For `CC(c1ccc(-c2cnc(N)nc2)cc1)(c1noc(N2CCC[C@H](O)C2)n1)C1CC1` (stereo partly drawn) [Example 288, (S)-1-(3-{1-[4-(2-Amino-pyrimidin-5-yl)-phenyl]-1-cyclopropyl-ethyl}-[1,2,4]oxadiazol-5-yl)-piperidin-3-ol], the concentration for half-maximal inhibition (IC50) in assay [2] was determined as 2.5 nM; in assay [3], 200 nM.

Regarding `CN(C)C(=O)Cn1cc(-c2nc(C(C)(c3ccc(-c4cnc(N)c(C(F)(F)F)n4)cc3)C3CC3)no2)cn1` (centres unmarked) [Example 289, 2-[4-(3-{1-[4-(5-Amino-6-trifluoromethyl-pyrazin-2-yl)-phenyl]-1-cyclopropyl-ethyl}-[1,2,4]oxadiazol-5-yl)-pyrazol-1-yl]-N,N-dimethyl-acetamide], the half-maximal inhibitory concentration (IC50) in assay [2] amounted to 22 nM; in assay [3], 1000 nM.

For `Cn1cc(-c2nc(C(C)(c3ccc(-c4cncc(OCc5ccccc5)c4)cc3)C3CC3)no2)cn1` (centres unmarked) [Example 290, 3-Benzyloxy-5-(4-{1-cyclopropyl-1-[5-(1-methyl-1H-pyrazol-4-yl)-[1,2,4]oxadiazol-3-yl]-ethyl}-phenyl)-pyridine], the values for the concentration for half-maximal inhibition (IC50) in assay [2] and in assay [3] were 22 nM and 2000 nM, respectively.

As for `CN(C)C(=O)Cn1cc(-c2nc([C@@](C)(c3ccc(-c4cnc(N)c(F)c4)cc3)C3CC3)no2)cn1` [Example 291, 2-[4-(3-{(R)-1-[4-(6-Amino-5-fluoro-pyridin-3-yl)-phenyl]-1-cyclopropyl-ethyl}-[1,2,4]oxadiazol-5-yl)-pyrazol-1-yl]-N,N-dimethyl-acetamide], the IC50 in assay [2] turned out to be 4.5 nM; in assay [3] it was 89 nM.

Regarding `Cc1nc(N)ccc1-c1ccc([C@](C)(c2noc(-c3cnn(CC(=O)N(C)C)c3)n2)C2CC2)cc1` [Example 292, 2-[4-(3-{(R)-1-[4-(6-Amino-2-methyl-pyridin-3-yl)-phenyl]-1-cyclopropyl-ethyl}-[1,2,4]oxadiazol-5-yl)-pyrazol-1-yl]-N,N-dimethyl-acetamide], the values for the 50% inhibitory concentration (IC50) in assay [2] and in assay [3] were 8.5 nM and 150 nM, respectively.

Take `CN(C)C(=O)Cn1cc(-c2nc([C@@](C)(c3ccc(-c4cnc(N)nc4F)cc3)C3CC3)no2)cn1` [Example 293, 2-[4-(3-{(R)-1-[4-(2-Amino-4-fluoro-pyrimidin-5-yl)-phenyl]-1-cyclopropyl-ethyl}-[1,2,4]oxadiazol-5-yl)-pyrazol-1-yl]-N,N-dimethyl-acetamide]: the half-maximal inhibitory concentration (IC50) worked out at 3.5 nM in assay [2] and 110 nM in assay [3].

Take `CN(C)C(=O)Cn1cc(-c2nc([C@@](C)(c3ccc(-c4cnc(N)c(C#N)n4)cc3)C3CC3)no2)cn1` [Example 294, 2-[4-(3-{(R)-1-[4-(5-Amino-6-cyano-pyrazin-2-yl)-phenyl]-1-cyclopropyl-ethyl}-[1,2,4]oxadiazol-5-yl)-pyrazol-1-yl]-N,N-dimethyl-acetamide]: the IC50 was 7 nM in assay [2] and 200 nM in assay [3].

In the case of `CN(C)C(=O)Cn1cc(-c2nc(C(C)(c3ccc(-c4ncc(N)nc4C#N)cc3)C3CC3)no2)cn1` (centres unmarked) [Example 295, 2-[4-(3-{1-[4-(5-Amino-3-cyano-pyrazin-2-yl)-phenyl]-1-cyclopropyl-ethyl}-[1,2,4]oxadiazol-5-yl)-pyrazol-1-yl]-N,N-dimethyl-acetamide], the 50% inhibitory concentration (IC50) in assay [2] is 7.5 nM; in assay [3], 150 nM.

Regarding `CN(C)C(=O)Cn1cc(-c2nc(C(C)(c3ccc(-c4ccc(N)nc4C#N)cc3)C3CC3)no2)cn1` (centres unmarked) [Example 296], the results for the concentration for half-maximal inhibition (IC50) in assay [2] and in assay [3] were 12 nM and 230 nM, respectively.

Consider `CN(c1nc(C(C)(c2ccc(-c3cnc(N)nc3)cc2)C2CC2)no1)C1CCC(O)CC1` (centres unmarked) [Example 297, 4-[(3-{1-[4-(2-Amino-pyrimidin-5-yl)-phenyl]-1-cyclopropyl-ethyl}-[1,2,4]oxadiazol-5-yl)-methyl-amino]-cyclohexanol], for which the half-maximal inhibitory concentration (IC50) in assay [2] was 8.5 nM; in assay [3] it was 79 nM.

As for `Cc1nc(N)nc(F)c1-c1ccc([C@](C)(c2noc(-c3cnn(CC(=O)N(C)C)c3)n2)C2CC2)cc1` [Example 298, 2-[4-(3-{(R)-1-[4-(2-Amino-4-fluoro-6-methyl-pyrimidin-5-yl)-phenyl]-1-cyclopropyl-ethyl}-[1,2,4]oxadiazol-5-yl)-pyrazol-1-yl]-N,N-dimethyl-acetamide], the IC50 in assay [2] worked out at 10 nM; in assay [3], 130 nM.

In the case of `CC(C)(C)Sc1c(CC(C)(C)C(=O)O)n(Cc2ccc(Cl)cc2)c2ccc(OCc3ccc4ccccc4n3)cc12` [MK-591], the “effect on proteinuria in human glomerulonephritis” value in assay [4] was “reduce proteinuria”.

On to `CC(C)c1ccc2c(c1)c(SC(C)(C)C)c(CC(C)(C)C(=O)O)n2Cc1ccc(Cl)cc1` [MK-886], for which, in assay [5], the “decrease in plaque coverage in the aorta” value was 56% and the “decrease in plaque coverage in the aortic root” value was 43%. Besides, the “decrease in plaque area in the aortic root” value in assay [6] is approximately 40%.

In general, IC50 refers to the concentration needed to halve the response being measured.
